The values that follow come from ChEMBL document CHEMBL1145726, “Structure-based design of agents targeting the bacterial ribosome” (Bioorg Med Chem Lett, 2003).

In brackets after ≈: the same amount, converted by molar mass. Where only a bound is given, the exact number is not on record here.

Holding throughout (assay type): functional
In assay [1] the test system is Escherichia coli. The assay can be described thus: In vitro inhibition of protein translation in Escherichia coli.
The subject of assay [2] is Escherichia coli. Nature of the assay: In vitro antibacterial activity was determined.
Assay [3] in a line: Inhibition of L11BD (L11 binding domain) 58-mer methylation of A1067 at 50 uM.
Another assay concerns Nucleic Acid. Nature of the assay: % Inhibition of rRNA methylation at 50 uM.
The test system of assay [4] is Escherichia coli. Nature of the assay: Inhibitory concentration of compound against Escherichia coli in vitro protein translation.

On to `CC(C)[C@@H](NC(=O)[C@@H](NC(=O)c1csc(-c2ccccc2)n1)[C@@H](C)O)c1nc(C(=O)NCCCO)cs1`, for which the Inhibition in the assay with Escherichia coli [1] is given as 48%. Besides, the MIC95 in the assay with Escherichia coli [2] is over 200 µg/mL. The inhibition (in assay [3]; in the assay with Nucleic Acid) was 37% in each case.
In turn, `C[C@H](O)[C@H](NC(=O)c1csc(-c2ccccc2)n1)c1nc(C(=O)N2CCN(CCOCCO)CC2)cs1` had an MIC95 with Escherichia coli [2] of over 200 µg/mL. The compound also displayed an inhibition in assay [3] of 59%.
For `CC(C)[C@@H](NC(=O)[C@@H](NC(=O)c1csc(-c2ccccc2)n1)[C@@H](C)O)c1nc(C(=O)NCc2ccc3c(c2)OCO3)cs1`, the Inhibition with Escherichia coli [1] came to 16%. Also, the MIC95 with Escherichia coli [2] was over 200 µg/mL. Besides, the inhibition in assay [3] was determined as 24%; with Nucleic Acid, 20%.
In turn, `C[C@H](O)[C@@H](NC(=O)[C@@H](NC(=O)c1csc(-c2ccccc2)n1)[C@@H](C)O)c1nc(C(=O)O)cs1` showed an MIC95 against Escherichia coli [2] of over 200 µg/mL. In addition, the inhibition amounted to 35% in assay [3] and 27% with Nucleic Acid.
`C=C(NC(=O)C(=C)NC(=O)c1csc(C2=N[C@@H]3c4csc(n4)[C@H]4NC(=O)c5csc(n5)[C@H]([C@](C)(O)[C@@H](C)O)NC(=O)[C@H]5CSC(=N5)/C(=C/C)NC(=O)[C@H]([C@@H](C)O)NC(=O)c5csc(n5)[C@]3(CC2)NC(=O)[C@H](C)NC(=O)C(=C)NC(=O)[C@H](C)NC(=O)[C@H]([C@@H](C)CC)N[C@@H]2C=Cc3c([C@H](C)O)cc(nc3[C@H]2O)C(=O)O[C@@H]4C)n1)C(N)=O` [THIOSTREPTON] gave an Inhibition in the assay on Escherichia coli [1] of 98%. Besides, in the assay on Escherichia coli [4], the midpoint of inhibition, the IC50, lay at 100 nM. The MIC95 against Escherichia coli [2] came out at 0.015 µg/mL (≈ 0.00901 µM).
Compound `CC[C@@H](NC(=O)[C@@H](NC(=O)c1csc(-c2ccccc2)n1)[C@@H](C)O)c1nc(C(=O)NCc2ccc3c(c2)OCO3)cs1` came in with an Inhibition in the assay on Escherichia coli [1] of 31%. In the assay with Escherichia coli [2], this compound yielded an MIC95 of over 200 µg/mL. Besides, the inhibition in assay [3] came out at 28%; in the assay with Nucleic Acid, 13%.
